Test results: publication PMC6813295, “A tumour-selective cascade activatable self-detained system for drug delivery and cancer imaging” (Nature Communications, 2019)
Where a SMILES comes first, the peptide text is derived from it. The star is where a group is joined. X1 = CC1(C)C(=CC=C2CCCC(C=CC3=[N+](CCCCCC(=O)O)c4ccccc4C3(C)C)=C2*)N(CCCCCC(=O)O)c2ccccc21

Assays:
H460 cells = type: cell-based, human; details: 50 μM for 6, 12, 24 h (flow cytometry), 1–100 μM 24 h (CCK-8)
Procedure: lysed in an ice bath at 1℃, 16000g for 15 minutes, the supernatant was transferred to a pre-cooled centrifuge tube in an ice bath. For each group, 20 μM (final concentration) Ac-DEVD-AMC and 100μl cell lysate were added to 1 ml Protease Assay Buffer [20 mM HEPES (pH 7.5), 10% glycerol, 2 mM DTT]. The reaction mixtures were incubated for 1 hour at 37 °C. The AMC released from Ac-DEVD-AMC was measured using a spectrofluorometer with an excitation wavelength of 380 nm and an emission wavelength range of 400-550 nm.
Flow cytometry analysis. A density of 1 × 10^5 H460 cells per well were seeded in the 6-well plates in 1640 medium which contains 10% fetal bovine serum and 1% penicillin–streptomycin, then cultured at 37 °C in a humidified atmosphere with 5% CO 2 for 16 h. Then molecules 1, 2 and 3 (50 μM) were added to each well, and the cells were incubated for additional 6 h, 12 h and 24 h, respectively. The apoptosis of the collected cells stained by Annexin V -FITC and PI (propidium iodide) was studied by […]
Cell viability assays . CCK-8 (cell counting kit-8) assay was carried out to investigate the cell viability.
H460 cells were utilized to evaluate the cytotoxicity of molecules 1, 2 and 3 by the CCK-8 assay.
Molecules 1, 2 and 3 were dispersed in 1640 medium with different concentration s such as 1, 5, 10, 30, 60 and 100 μM. The cells with the density of 5 × 10^4 cells per well were seeded in the 96 -well plates in 1640 medium containing 10% fetal bovine serum and 1% penicillin –streptomycin, then cultured at 37 °C in a humidified atmosphere with 5% CO 2 for 16 h. […]
Microplate reader was used to measure the UV -Vis absorptions of sample wells (A sample), Ablack and control wells (A control) at a test wavelength of 450 nm and a reference wavelength of 690 nm, […]
Blood circulation. […] The supernatant of the blood samples was collected by centrifugation at 10 000 rpm for 10 min , and the content of compound 1, 2 and 3 in the supernatant w ere determined using fluorescence spectrophotometric measurement. […]
3 h. […] Morphologies of liposomes were measured by Tecnai G20 electron microscope. […]

[1] = Blood circulation pharmacokinetics; type: in vivo, mouse; details: Balb/c mice, IV single dose 14 mg/kg, blood 0.017–6 h, fluorescence spectroscopy, DAS2.0, mean ± s.d. n = 3
Procedure: respectively. Cell viability (%) was equal to (Asample - Ablank)/ (Acontrol - Ablank) x 100. All the experiments were performed in triplicate.
Blood circulation. To investigate the pharmacokinetics of the compound 1, 2 and 3, Balb/c mice were randomly divided into three groups (n = 3). Each group was intravenous (iv) injected with a single dose of 14 mg/kg of compou nd 1, 2 or 3. Blood samples were collected via the orbital venous plexus at 0.017, 0.08 3, 0.25, 0.5, 1, 3, 4 and 6 h post injection and collected into EDTA tubes. The supernatant of the blood samples was collected by centrifugation at 10 000 rpm for 10 min , and the content of compound 1, 2 and 3 in the supernatant w ere determined using fluorescence spectrophotometric measurement. Data for known concentrations of compound 1, 2 or 3 (concentration from 1.2 μM to 25.0 μM) were used to make the standard curve, the “Predicted R-Squared” value of 0.99.
Preparation and characteristic of liposomes. Liposomes were prepared by a thin lipid film hydration method followed by extrusion. Briefly, PC: CH: DSPE -PEG-NHS = 66: 32: 2 (molar ratio) were dissolved in a chloroform/methanol mixture (4: 1) in a round bottom flask. The lipid film was hydrated with PBS (pH 7.4) after evaporation of the chloroform/methanol solvents. […]
3 h. […] Morphologies of liposomes were measured by Tecnai G20 electron microscope.

SMILES	apoptotic cell death (flow cytometry and cell viability assays) (H460 cells)	blood circulation half-life (t1/2β) [1] [h]
CC[C@H](C)[C@H](NC(=O)[C@@H]1CCCN1C(=O)[C@@H](NC(=O)[C@H](C)N)C(C)C)C(=O)N[C@@H](C)C(=O)N[C@@H](CCC(N)=O)C(=O)N[C@@H](CCCCN)C(=O)N[C@@H](CC(=O)O)C(=O)N[C@@H](CCC(=O)O)C(=O)N[C@H](C(=O)N[C@@H](CC(=O)O)C(=O)N[C@@H](CCCCN)C(=O)N[C@@H](CC(C)C)C(=O)N[C@H](C(=O)N[C@@H](Cc1ccccc1)C(=O)N[C@@H](Cc1ccccc1)C(=O)N[C@@H](C)C(=O)N[C@@H](CCC(=O)O)C(=O)N[C@@H](CSC1=C(C=CC2=[N+](CCCCCC(=O)O)c3ccccc3C2(C)C)CCCC1=CC=C1N(CCCCCC(=O)O)c2ccccc2C1(C)C)C(=O)NCC(=O)O)C(C)C)C(C)C [molecule 1] (H-AVPIAQKDEVDKLVFFAEC(X1)G-OH)	No apoptosis was observed	1.15 ± 0.10
CSCC[C@H](N)C(=O)N[C@@H](CC(=O)O)C(=O)N[C@@H](CCC(=O)O)C(=O)N[C@@H](CCCCN)C(=O)N[C@@H](C)C(=O)N[C@@H](CCC(N)=O)C(=O)N[C@@H](CCCCN)C(=O)N[C@@H](CC(=O)O)C(=O)N[C@@H](CCC(=O)O)C(=O)N[C@H](C(=O)N[C@@H](CC(=O)O)C(=O)N[C@@H](CCCCN)C(=O)N[C@@H](CC(C)C)C(=O)N[C@H](C(=O)N[C@@H](Cc1ccccc1)C(=O)N[C@@H](Cc1ccccc1)C(=O)N[C@@H](C)C(=O)N[C@@H](CCC(=O)O)C(=O)N[C@@H](CSC1=C(C=CC2=[N+](CCCCCC(=O)O)c3ccccc3C2(C)C)CCCC1=CC=C1N(CCCCCC(=O)O)c2ccccc2C1(C)C)C(=O)NCC(=O)O)C(C)C)C(C)C [molecule 2] (H-MDEKAQKDEVDKLVFFAEC(X1)G-OH; N-terminus assumed)	No apoptosis was observed	–
CC[C@H](C)[C@H](NC(=O)[C@@H]1CCCN1C(=O)[C@@H](NC(=O)[C@H](C)N)C(C)C)C(=O)N[C@@H](C)C(=O)N[C@@H](CCC(N)=O)C(=O)N[C@@H](CCCCN)C(=O)N[C@@H](CC(=O)O)C(=O)N[C@@H](CCC(=O)O)C(=O)N[C@H](C(=O)N[C@@H](CC(=O)O)C(=O)N[C@@H](CCC(=O)O)C(=O)N[C@@H](CSC1=C(C=CC2=[N+](CCCCCC(=O)O)c3ccccc3C2(C)C)CCCC1=CC=C1N(CCCCCC(=O)O)c2ccccc2C1(C)C)C(=O)NCC(=O)O)C(C)C [molecule 3] (H-AVPIAQKDEVDEC(X1)G-OH; N-terminus assumed)	No apoptosis was observed	1.06 ± 0.17
